# Assay: UV/Vis scan of DTT effect on doxorubicin over time
# Format: physicochemical
# Conditions: high concentration of DTT, 17 hours
# Method: Diothiothreitol (DTT) is a well known mild disulfide reducing agent and is used to maintain disulfide groups in their reduced thiol state. […] A high concentration of DTT was added to doxorubicin and was scanned at 1 hour time points using a UV/Vis spectrophotometer.
compound,measurement,value
COc1cccc2c1C(=O)c1c(O)c3c(c(O)c1C2=O)C[C@@](O)(C(=O)CO)C[C@@H]3O[C@H]1C[C@H](N)[C@H](O)[C@H](C)O1 [doxorubicin],Change to the absorbance of doxorubicin on exposure to DTT,very little change

# Source: patent publication US20140030350A1, “Drug Delivery Systems” (BIOCOMPATIBLES UK LIMITED, priority 2011, published 2014)
